The record followed here is patent publication US8647615B1, “Methods for attracting honey bee parasitic mites” (The United States of America, as represented by the …, priority 2010, dated 2014).

Experiment [1] relates to mites. The experiment is described as follows: two choice diffusion bioassay, Ethovision tracking. The experiment is classed as in vivo, Varroa mites. To be noted: 5% butyric acid in water vs water, 8 mites, p<0.001. From the text:
(§1) This experiment used the tracking software Ethovision XT (Noldus Information Technology, Leesburg Va.) to monitor the position of mites in an arena. The arena was a four quadrant petri dish 7.5 cm in diameter, the sides of the dish were ground down so that the separations were all the same height as the edges. A plexiglass ring, 7.5 cm outside diameter 2.5 cm high, with 11 micron Nitex fabric attached to the bottom contained the mite and separated the mite from the odor sources but allowed the odors to diffuse through the fabric. The petri dish quadrants were filled either with 5% butyric acid in water, or water only as a control. Opposite quadrants were filled with the same material so that the bottom of each quadrant was completely covered with liquid. This ensured equal surface areas for diffusion of the solute and solvent. Each experiment was conducted with 8 mites. […] A second set of no choice assays was also performed, these assays used an un-separated petri dish to hold the 5% acid solution and the movements of the mites over the solution were monitored.

Experiment [2] concerns mites. The experiment is described as follows: no choice test with Ethovision analysis. It counts as in vivo, Varroa mites.
Text: as §1

The test system of the next experiment is Free-roaming mites. The experiment can be described thus: visual evaluation of free-roaming mites under the microscope. The experiment is classed as in vivo, Varroa mites. Conditions: for excitation and search behaviors (questing and casting): acid volatiles from capillary tubes; for movement relative to acid droplets: free-roaming mites. An excerpt:
(§2) Once we determined that the mites could perceive and respond to the acid volatiles, we examined whether these acids acted as attractants or repellents. We developed a four choice bioassay to evaluate the responses of mites to highly concentrated volatiles released at very close distances (7 mm). Our choice arena consisted of four odor sources presented directly beneath a permeable mesh floor. Each odor source was introduced by capillary release from a capillary tube, the volatiles diffused up through the permeable mesh floor. Free-roaming (off the adult bee) mites were introduced onto a vertical pin placed in the center of the arena. […] The expected value for response is 25% as indicated by the dashed line. […] Free-roaming mites were also exposed to these chemicals under the microscope to visually evaluate mite detection, attraction, and arrestant responses to the acid volatiles.

Experiment [3] deals with phoretic mites on adult bees. The experiment can be described thus: bottom screen assay: mite-infested adult worker bees in screen bottomed jar over water trap. The experiment is classed as in vivo, Varroa mites. To be noted: 20 minutes; for mites that fell off bees versus control jars: 200 mite-infested bees per jar, 100 μL, three replicates, control methylene chloride; for mite activity level versus control treatments: exposure to acid volatiles. Here is the method: We then performed a bottom screen assay to assess the response of phoretic mites on adult bees to the acid volatiles. We placed 200 mite-infested adult worker bees in a screen bottomed jar inverted over a water trap. A total of nine jars were used, three replicates of each treatment. The mites and bees were exposed to either butyric acid, isobutyric acid, or a control solvent (methylene chloride) (100 μL) for 20 minutes. Mites that moved off the bees fell into the water trap below. At the end of the experiment, the bees were washed with alcohol to estimate the number of mites that remained on the bees.

The subject of the next experiment is Varroa mite forelegs. The experiment can be described thus: coupled gas chromatography and electroantennographic detection (GC-EAD) with mite forelegs. Also on record: species or system Varroa mites. Conditions: standard with compounds at equal concentrations. From the text:
To determine if mites can detect the acid compounds we used coupled gas chromatography and electroantennographic detection (GC-EAD) and electroantennography (EAG). […] A detecting electrode was set up with electrode gel on each contact and then a mite was dissected so that both of its forelegs could be set across the electrodes. The electrode gel provides both a better contact and keeps the forelegs from drying out. For GC-EAD we used a standard containing our two attractive acids along with other short chain acids (i.e., acetic acid, propanoic acid, and hexanoic acid) and common bee odors (iso-pentyl acetate, delta-3-carene, E-(β)-ocimine) at equal concentrations. […] We used EAG to determine the responses of forelegs to the individual detected compounds. […] The dashed line in FIG. 6 represents the level of the control response.

Experiment [4] concerns Free-roaming (off the adult bee) mites. The experiment is described as follows: four choice arena bioassay. To be noted: for mite attraction: movement toward odor source (contact or position at end of bioassay): 5% by volume in distilled water vs three water controls, 5 minutes, expected value 25%; for arrestant (stopping) behavior: four choice arena, 5% by volume in distilled water. The experiment is classed as in vivo, Varroa mites.
Text: as §2, with “We” for “Once we determined that the mites could perceive and respond to the acid volatiles, we examined whether these acids acted as attractants or repellents. We”

Each structure is given as a SMILES string. “Also recorded” adds a separate entry of the source.

Regarding `CCCC(=O)O` [butyric acid], the “time spent in zone over odor source versus control zones” value with mites [1] was “spent significantly more time”. In addition, the “time spent in zone over odor source versus control zones” value in the experiment with mites [1] (listed as Butyric Acid) is on record as “more time is spent”. The “movement (speed, stopping, time moving) versus water control” value with mites [2] (5% acid solution, un-separated petri dish) is “significantly less time moving; also recorded: moving slower and stopping more often”. Besides, the “time spent in zone/arena over the acid versus water” value with mites [2] (5% acid solution, un-separated petri dish, p<0.001) is reported as “significantly more time; also recorded: spent more time in the arena”. Moreover, in the experiment with mites [2] (EthoVision diffusion bioassays, sustained exposure to high concentrations of volatiles), the “arrestant behaviors on sustained exposure” value is “caused arrestant behaviors”. For the same molecule, in the experiment with Free-roaming mites, the “excitation and search behaviors (questing and casting)” value is “showed excitation and search behaviors”; the “movement relative to acid droplets” value is “moved toward and occasionally into acid droplets”. In experiment [3], the “mites that fell off bees versus control jars” value is “significantly more mites fell off bees” and the “mite activity level versus control treatments” value is listed as “much higher activity levels”. In the experiment with Varroa mite forelegs, the “detection by mite forelegs (GC-EAD)” value is “excited by”. Further, in experiment [4], the “mite attraction: movement toward odor source (contact or position at end of bioassay)” value was “significantly more likely to move in the direction of” and the “arrestant (stopping) behavior” value was “did not display any arrestant (stopping) behavior”.

For `CC(=O)OCCC(C)C` [iso-pentyl acetate], the “detection by mite forelegs (GC-EAD)” value in the experiment on Varroa mite forelegs is “did not appear to be detected”.

Turning to `CCCCCC(=O)O` [hexanoic acid], the “detection by mite forelegs (GC-EAD)” value with Varroa mite forelegs is “did not appear to be detected”.

As for `CC(=O)O` [acetic acid], in the experiment on Varroa mite forelegs, the “detection by mite forelegs (GC-EAD)” value is given as “could clearly detect”.

For `CCC(=O)O` [propanoic acid], the “detection by mite forelegs (GC-EAD)” value with Varroa mite forelegs is listed as “did not appear to be detected”.

For the molecule `CC(C)C(=O)O` [isobutyric acid], in the experiment on Free-roaming mites, the “excitation and search behaviors (questing and casting)” value was “showed excitation and search behaviors”; the “movement relative to acid droplets” value was “moved toward and occasionally into acid droplets”. Further, in experiment [3], the “mites that fell off bees versus control jars” value is reported as “significantly more mites fell off bees” and the “mite activity level versus control treatments” value is “much higher activity levels”. Moreover, the “detection by mite forelegs (GC-EAD)” value with Varroa mite forelegs was “excited by”. Further, in experiment [4], the “mite attraction: movement toward odor source (contact or position at end of bioassay)” value is given as “significantly more likely to move in the direction of” and the “arrestant (stopping) behavior” value is reported as “did not display any arrestant (stopping) behavior”.

Regarding `CC1=CCC2C(C1)C2(C)C` (stereo not shown) [delta-3-carene], the “detection by mite forelegs (GC-EAD)” value with Varroa mite forelegs is on record as “did not appear to be detected”.

Turning to `C=C/C(C)=C/CC=C(C)C` [E-(β)-ocimine], the “detection by mite forelegs (GC-EAD)” value in the experiment on Varroa mite forelegs is “did not appear to be detected”.
